Laboratory results from US11066414B2, “Cot modulators and methods of use thereof” (Gilead Sciences, Inc., priority 2015, dated 2021).
Where two headings read alike, the source gives them in different places.

How the values were obtained:
TNFα = assay: Cot Monocyte TNFα Cell Based Assay
Human Cot = Human Cot (Homo sapiens (Human), UniProt P41279); assay: High Throughput Cot Biochemical Assay
[1] = Homo sapiens, Monocyte, read-out: EC50 TNF, LPS-stimulated human monocytes, TNFα
[2] = IC50 HTRF, Cot HTRF (TR-FRET) biochemical assay
[3] = Homo sapiens, Monocyte, read-out: EC50 TNF, LPS-stimulated human monocytes, TNFα TR-FRET
[4] = IC50 HTRF, Cot HTRF (TR-FRET KinEASE) biochemical assay, 400 μM ATP
[5] = read-out: EC50 TNF, LPS-stimulated human monocytes, TNFα TR-FRET
[6] = read-out: IC50 HTRF, Cot HTRF (TR-FRET KinEASE) biochemical assay, 400 μM ATP

Sequence of Human Cot (P41279 30-397): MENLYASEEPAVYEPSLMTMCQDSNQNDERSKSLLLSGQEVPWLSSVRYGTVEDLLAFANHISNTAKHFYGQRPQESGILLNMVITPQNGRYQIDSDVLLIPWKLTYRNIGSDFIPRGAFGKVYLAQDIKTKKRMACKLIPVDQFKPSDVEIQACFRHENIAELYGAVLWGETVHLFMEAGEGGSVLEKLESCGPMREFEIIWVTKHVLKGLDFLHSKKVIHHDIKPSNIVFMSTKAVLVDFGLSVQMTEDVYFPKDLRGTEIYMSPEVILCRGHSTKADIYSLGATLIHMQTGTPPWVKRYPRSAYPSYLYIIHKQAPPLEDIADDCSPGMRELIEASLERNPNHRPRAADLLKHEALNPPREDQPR

CCn1ccc2c([C@H](Nc3cc(Cl)c4ncc(C#N)c(NCC(C)(C)C)c4c3)c3cn(C45CC(C4)C5)nn3)cccc2c1=O [Example 769, (S)-6-(((1-(bicyclo[1.1.1]pentan-1-yl)-1H-1,2,3-triazol-4-yl)(2-ethyl-1-oxo-1,2-dihydroisoquinolin-5-yl)methyl)amino)-8-chloro-4-(neopentylamino)quinoline-3-carbonitrile]
EC50 (TNFα; [1]): 28 nM | IC50 (Human Cot; [2]): 2 nM

Cn1nnc2cccc([C@H](Nc3cc(C#N)c4ncc(C#N)c(NCC(C)(C)C)c4c3)c3cn(C4(C(F)(F)F)CC4)nn3)c21 [Example 527, (S)-6-(((1-methyl-1H-benzo[d][1,2,3]triazol-7-yl)(1-(1-(trifluoromethyl)cyclopropyl)-1H-1,2,3-triazol-4-yl)methyl)amino)-4-(neopentylamino)quinoline-3,8-dicarbonitrile]
EC50 (TNFα; [1]): 78 nM | IC50 (Human Cot; [2]): 3 nM

[2H]C(Nc1cc(Cl)c2ncc(C#N)c(N[C@H](CCC#N)c3ccccc3)c2c1)(c1cn(C2(C(F)(F)F)CC2)nn1)c1ccc(F)nc1C (stereo partly drawn) [Example 413, 8-chloro-4-(((R)-3-cyano-1-phenyl-propyl)amino)-6-(((6-fluoro-2-methyl-pyridin-3-yl)(1-(1-(trifluoromethyl)-cyclopropyl)-1H-1,2,3-triazol-4-yl)methyl-d)amino)quinoline-3-carbonitrile]
EC50 (TNFα; [1]): 44 nM | IC50 (Human Cot; [2]): 4 nM

[2H]C(Nc1cc(Cl)c2ncc(C#N)c(N[C@H](CC)c3ccccc3)c2c1)(c1cn(C2CC2)nn1)c1ccc(Cl)nc1C (stereo partly drawn) [Example 122, 8-chloro-6-(((6-chloro-2-methylpyridin-3-yl)(1-cyclopropyl-1H-1,2,3-triazol-4-yl)methyl-d)amino)-4-(((R)-1-phenylpropyl)amino)quinoline-3-carbonitrile]
EC50 (TNFα; [1]): 240 nM | IC50 (Human Cot; [2]): 6 nM

Cn1ccc2c([C@H](Nc3cc(C#N)c4ncc(C#N)c(NCC(C)(C)C)c4c3)c3cn(C45CC(C4)C5)nn3)cccc2c1=O [Example 891, (S)-6-(((1-(bicyclo[1.1.1]pentan-1-yl)-1H-1,2,3-triazol-4-yl)(2-methyl-1-oxo-1,2-dihydroisoquinolin-5-yl)methyl)amino)-4-(neopentylamino)quinoline-3,8-dicarbonitrile]
EC50 (TNFα; [3]): 12 nM | IC50 (Human Cot; [4]): 1 nM

CC(C)(CNc1c(C#N)cnc2c(C#N)cc(N[C@H](c3cn(C4(C(F)F)CC4)nn3)c3cccc4ncccc34)cc12)C(F)(F)F [Example 894]
EC50 (TNFα; [5]): 54 nM | IC50 (Human Cot; [6]): 3 nM

CC(C)n1cc([C@@H](Nc2cc(Cl)c3ncc(C#N)c(Nc4ccc(F)c(Cl)c4)c3c2)c2cccn3nccc23)nn1 [Example 157, (S)-8-chloro-4-((3-chloro-4-fluorophenyl)amino)-6-(((1-isopropyl-1H-1,2,3-triazol-4-yl)(pyrazolo[1,5-a]pyridin-4-yl)methyl)amino)-quinoline-3-carbonitrile]
EC50 (TNFα; [1]): 127 nM | IC50 (Human Cot; [2]): 5 nM

CC(C)(C)N1CCC(n2cc([C@@H](Nc3cc(Cl)c4ncc(C#N)c(NC5CCCCCC5)c4c3)c3cccnc3)nn2)CC1 [Example 288, (S)-6-(((1-(1-(tert-butyl)piperidin-4-yl)-1H-1,2,3-triazol-4-yl)(pyridin-3-yl)methyl)amino)-8-chloro-4-(cycloheptylamino)quinoline-3-carbonitrile]
EC50 (TNFα; [1]): 1060 nM | IC50 (Human Cot; [2]): 26 nM

CC(C)(C)CNc1c(C#N)cnc2c(Cl)cc(N[C@H](c3cn(C4(C#N)CC4)nn3)c3cccc4cnccc34)cc12 [Example 563, (S)-8-chloro-6-(((1-(1-cyanocyclopropyl)-1H-1,2,3-triazol-4-yl)(isoquinolin-5-yl)methyl)amino)-4-(neopentylamino)-quinoline-3-carbonitrile]
EC50 (TNFα; [1]): 63 nM | IC50 (Human Cot; [2]): 2 nM

Cn1ncc2cccc([C@H](Nc3cc(Cl)c4ncc(C#N)c(NCC(C)(C)C)c4c3)c3cn(C4(C(F)F)CC4)nn3)c21 [Example 603, (S)-8-chloro-6-(((1-(1-(difluoromethyl)cyclo-propyl)-1H-1,2,3-triazol-4-yl)(1-methyl-1H-indazol-7-yl)methyl)amino)-4-(neopentyl-amino)quinoline-3-carbonitrile]
EC50 (TNFα; [1]): 107 nM | IC50 (Human Cot; [2]): 7 nM

COc1nccc2c([C@H](Nc3cc(C#N)c4ncc(C#N)c(NCC(C)(C)C)c4c3)c3cn(C4(C(F)F)CC4)nn3)cccc12 [Example 810, (S)-6-(((1-(1-(difluoromethyl)-cyclopropyl)-1H-1,2,3-triazol-4-yl)(1-methoxylsoquinolin-5-yl)methyl)amino)-4-(neopentylamino)quinoline-3,8-dicarbonitrile]
EC50 (TNFα; [5]): 54 nM | IC50 (Human Cot; [6]): 4 nM

CC(C)(C)CNc1c(C#N)cnc2c(C#N)cc(N[C@H](c3cn(C4CCN(C(C)(C)C)CC4)nn3)c3cccc4ncsc34)cc12 [Example 420, (S)-6-((benzo[d]thiazol-7-yl(1-(1-(tert-butyl)piperidin-4-yl)-1H-1,2,3-triazol-4-yl)methyl)amino)-4-(neopentyl-amino)quinoline-3,8-dicarbonitrile]
EC50 (TNFα; [1]): 25 nM | IC50 (Human Cot; [2]): 2 nM

CC(C)(CNc1c(C#N)cnc2c(Cl)cc(N[C@H](c3cn(C4(C(F)F)CC4)nn3)c3cccc4ncccc34)cc12)C(F)(F)F [Example 940, (S)-8-chloro-6-(((1-(1-(difluoromethyl)cyclopropyl)-1H-1,2,3-triazol-4-yl)(quinolin-5-yl)methyl)amino)-4-((3,3,3-trifluoro-2,2-dimethylpropyl)amino)quinoline-3-carbonitrile]
EC50 (TNFα; [3]): 86 nM | IC50 (Human Cot; [4]): 7 nM

Cc1nc(F)ccc1[C@H](Nc1cc(Cl)c2ncc(C#N)c(NCC(C)(C)c3ccccc3)c2c1)c1cn(C2(C(F)(F)F)CC2)nn1 [Example 612, (S)-8-chloro-6-(((6-fluoro-2-methylpyridin-3-yl)(1-(1-(trifluoromethyl)cyclopropyl)-1H-1,2,3-triazol-4-yl)methyl)amino)-4-((2-methyl-2-phenylpropyl)amino)quinoline-3-carbonitrile]
EC50 (TNFα; [1]): 171 nM | IC50 (Human Cot; [2]): 11 nM

CC(C)(C)N1CCC(n2cc([C@@H](Nc3cc(Cl)c4ncc(C#N)c(Nc5ccc(Cl)c(Cl)c5F)c4c3)c3csc4c3CCN(C3COC3)C4)nn2)CC1 [Example 223, (S)-6-(((1-(1-(tert-butyl)piperidin-4-yl)-1H-1,2,3-triazol-4-yl)(6-(oxetan-3-yl)-4,5,6,7-tetrahydrothieno[2,3-c]pyridin-3-yl)methyl)amino)-8-chloro-4-((3,4-dichloro-2-fluorophenyl)amino)quinoline-3-carbonitrile]
EC50 (TNFα; [1]): 94 nM | IC50 (Human Cot; [2]): 7 nM

Cc1nc(F)ccc1[C@H](Nc1cc(C#N)c2ncc(C#N)c(NCC(C)(C)C)c2c1)c1cn(C(F)(F)CO)nn1 [Example 661, (S)-6-(((1-(1,1-difluoro-2-hydroxyethyl)-1 H-1,2,3-triazol-4-yl)(6-fluoro-2-methylpyridin-3-yl)methyl)amino)-4-(neopentylamino)quinoline-3,8-dicarbonitrile]
EC50 (TNFα; [1]): 103 nM | IC50 (Human Cot; [2]): 2 nM

N#Cc1cnc2c(Cl)cc(N[C@@H](c3cccnc3)c3cn(CCCN4CCCC4)nn3)cc2c1Nc1cnc(F)c(F)c1 [Example 200, (S)-8-chloro-4-((5,6-difluoropyridin-3-yl)amino)-6-((pyridin-3-yl(1-(3-(pyrrolidin-1-yl)propyl)-1H-1,2,3-triazol-4-yl)methyl)amino)quinoline-3-carbonitrile]
EC50 (TNFα; [1]): 558 nM | IC50 (Human Cot; [2]): 7 nM

Cn1cc2c([C@H](Nc3cc(C#N)c4ncc(C#N)c(NCC(C)(C)C)c4c3)c3cn(C4(C(F)(F)F)CC4)nn3)cccc2n1 [Example 558, (S)-6-(((2-methyl-2H-indazol-4-yl)(1-(1-(trifluoromethyl)cyclopropyl)-1H-1,2,3-triazol-4-yl)methyl)amino)-4-(neopentyl-amino)quinoline-3,8-dicarbonitrile]
EC50 (TNFα; [1]): 72 nM | IC50 (Human Cot; [2]): 3 nM

CC(C)(C)CNc1c(C#N)cnc2c(C#N)cc(N[C@H](c3cn(C4(C(F)(F)F)CC4)nn3)c3cccc4cnccc34)cc12 [Example 470, (S)-6-((isoquinolin-5-yl(1-(1-(trifluoromethyl)cyclopropyl)-1H-1,2,3-triazol-4-yl)methyl)amino)-4-(neopentylamino)quinoline-3,8-dicarbonitrile]
EC50 (TNFα; [1]): 46 nM | IC50 (Human Cot; [2]): 2 nM

[2H][C@](Nc1cc(OC)c2ncc(C#N)c(N[C@H](CC)c3ccccc3)c2c1)(c1ccc(F)nc1)c1cn(C2CC2)nn1 [Example 97, 6-(((S)-(1-cyclopropyl-1H-1,2,3-triazol-4-yl)(6-fluoropyridin-3-yl)methyl-d)amino)-8-methoxy-4-(((R)-1-phenylpropyl)amino)-quinoline-3-carbonitrile]
EC50 (TNFα; [1]): 358 nM | IC50 (Human Cot; [2]): 20 nM

[2H]C(Nc1cc(Cl)c2ncc(C#N)c(NCC(C)(C)C)c2c1)(c1cn(C2CC2)nn1)c1cccnc1Cl (centres unmarked) [Example 126, 8-chloro-6-(((2-chloropyridin-3-yl)(1-cyclopropyl-1H-1,2,3-triazol-4-yl)methyl-d)amino)-4-(neopentylamino)quinoline-3-carbonitrile]
EC50 (TNFα; [1]): 146 nM | IC50 (Human Cot; [2]): 3 nM

Cc1nc(F)ccc1[C@H](Nc1cc(C#N)c2ncc(C#N)c(NCC3(C(F)(F)F)CCC3)c2c1)c1cn(C2(C(F)F)CC2)nn1 [Example 831, (S)-6-(((1-(1-(difluoromethyl)-cyclopropyl)-1H-1,2,3-triazol-4-yl)(6-fluoro-2-methylpyridin-3-yl)methyl)amino)-4-(((1-(trifluoromethyl)cyclobutyl)methyl)-amino)quinoline-3,8-dicarbonitrile]
EC50 (TNFα; [3]): 202 nM | IC50 (Human Cot; [4]): 8 nM
